# Source: patent US12371454B2, “Cyclic peptide compound having Kras inhibitory action” (priority 2019, dated 2025)
# Starred links: 1 amine or outer side, 2 acyl side, 3 side chain; linkers in the order of their positions; H or OH if unused. Positions of bridges follow the written chain, without caps; N, C: chain ends. Non-standard residues stand in square brackets, D forms with d. Residues, ends and D or L forms follow the SMILES beside them. *: point of attachment. hPhe(3-Cl-4-CF3) = N[C@@H](CCc1ccc(C(F)(F)F)c(Cl)c1)C(=O)O; NMePhe(4-CF3) = CN[C@@H](Cc1ccc(C(F)(F)F)cc1)C(=O)O; NEtAsp = CCN([C@@H](CC(=O)[*:3])C(=O)[*:2])[*:1]; NMePhe(4-Cl) = CN[C@@H](Cc1ccc(Cl)cc1)C(=O)O; NMePhe(4-F) = CN[C@@H](Cc1ccc(F)cc1)C(=O)O; NMedβ3hAla = C[C@H](CC(=O)[*:2])N(C)[*:1]; NMeGly(cPent) = CN[C@H](C(=O)O)C1CCCC1; Pro(4,4-F2) = O=C(O)[C@@H]1CC(F)(F)CN1; NMeGly(cBu) = CN[C@H](C(=O)O)C1CCC1; NMeCha = CN[C@@H](CC1CCCCC1)C(=O)O; NEtLeu = CCN[C@@H](CC(C)C)C(=O)O; NMeChg = CN[C@H](C(=O)O)C1CCCCC1; NMeI = CC[C@H](C)[C@H](NC)C(=O)O; NMeD = CN[C@@H](CC(=O)O)C(=O)O; NMeL = CN[C@@H](CC(C)C)C(=O)O; NMeV = CN[C@H](C(=O)O)C(C)C; d(β3hA) = C[C@@H](N)CC(=O)O; Morpholide = C1CN(*)CCO1; NMeA = CN[C@@H](C)C(=O)O; Piperidide = C1CCN(*)CC1; Thz = O=C(O)[C@@H]1CSCN1; dNMeA = CN[C@H](C)C(=O)O; Ac5c = NC1(C(=O)O)CCCC1; Aze = O=C(O)[C@@H]1CCN1; NEtG = CCNCC(=O)O; Sar = CNCC(=O)O
# Tested on: Human pancreatic cancer cell line AsPC-1
# Assay: Measurement of AsPC-1 cell growth inhibition (AsPC-1 CGI)
# Type: cell-based
# Conditions: 96 h
# Method in brief: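 AsPC-1 cells in 15% FBS RPMI-1640 were exposed to test compound for 96 hours at 37° C, with CellTiter-Glo as endpoint.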
row,Compound,IC50 [nM]
1,CC[C@H](C)[C@@H]1NC(=O)[C@H](CC(C)C)N(C)C(=O)C[C@@H](C(=O)N2CCCCC2)N(CC)C(=O)[C@H](C2CCCC2)N(C)C(=O)C2(CCCC2)NC(=O)[C@@H]2CCCN2C(=O)[C@H](CCc2ccc(C(F)(F)F)c(Cl)c2)NC(=O)CN(C)C(=O)[C@H](C2CCC2)N(C)C(=O)[C@@H]2CCN2C(=O)[C@H](C)N(C)C1=O [Compound 1047] ([NMeL]I[NMeA][Aze][NMeGly(cBu)][Sar][hPhe(3-Cl-4-CF3)]P[Ac5c][NMeGly(cPent)][NEtAsp]-Piperidide; lactam N-11),50 to 100
2,CC[C@H](C)[C@@H]1NC(=O)[C@H](CC(C)C)N(C)C(=O)C[C@@H](C(=O)N2CCCCC2)N(C)C(=O)[C@H]([C@@H](C)CC)N(C)C(=O)C2(CCCC2)NC(=O)[C@@H]2CCCN2C(=O)[C@H](CCc2ccc(C(F)(F)F)c(Cl)c2)NC(=O)CN(C)C(=O)[C@H](Cc2ccc(F)cc2)N(C)C(=O)[C@@H]2CCN2C(=O)[C@H](C)N(C)C1=O [Compound 1060] ([NMeL]I[NMeA][Aze][NMePhe(4-F)][Sar][hPhe(3-Cl-4-CF3)]P[Ac5c][NMeI][NMeD]-Piperidide; lactam N-11),20 to 50
3,"CC[C@H](C)[C@@H]1NC(=O)[C@H](CC(C)C)N(C)C(=O)C[C@@H](C)N(C)C(=O)[C@H](C2CCCC2)N(C)C(=O)C2(CCCC2)NC(=O)[C@@H]2CC(F)(F)CN2C(=O)[C@H](CCc2ccc(C(F)(F)F)c(Cl)c2)NC(=O)CN(C)C(=O)[C@H](Cc2ccc(C(F)(F)F)cc2)N(C)C(=O)[C@@H]2CCN2C(=O)[C@H](C)N(C)C1=O [Compound 1062] (cyclo([Ac5c][NMeGly(cPent)][NMedβ3hAla][NMeL]I[NMeA][Aze][NMePhe(4-CF3)][Sar][hPhe(3-Cl-4-CF3)][Pro(4,4-F2)]))",20 to 50
4,CC[C@H](C)[C@@H]1NC(=O)[C@H](C)N(C)C(=O)C[C@@H](C)NC(=O)[C@H](C2CCCC2)N(C)C(=O)C2(CCCC2)NC(=O)[C@@H]2CCCN2C(=O)[C@H](CCc2ccc(C(F)(F)F)c(Cl)c2)NC(=O)[C@@H](C)N(C)C(=O)[C@H](C(C)C)N(C)C(=O)[C@@H]2CCN2C(=O)[C@H](C)N(C)C1=O [Compound 1066] (cyclo([Ac5c][NMeGly(cPent)][d(β3hA)][NMeA]I[NMeA][Aze][NMeV][dNMeA][hPhe(3-Cl-4-CF3)]P)),100 to 500
5,CC[C@H](C)[C@@H]1NC(=O)[C@H](C(C)C)N(C)C(=O)C[C@@H](C)NC(=O)[C@H](C(C)C)N(C)C(=O)C2(CCCC2)NC(=O)[C@H](CC(C)C)N(C)C(=O)[C@H](CCc2ccc(C(F)(F)F)c(Cl)c2)NC(=O)CN(C)C(=O)[C@H](Cc2ccc(Cl)cc2)N(C)C(=O)CN(C)C(=O)CN(C)C1=O [Compound 1069] (cyclo([Ac5c][NMeV][d(β3hA)][NMeV]I[Sar][Sar][NMePhe(4-Cl)][Sar][hPhe(3-Cl-4-CF3)][NMeL])),100 to 500
6,CC[C@H](C)[C@@H]1NC(=O)[C@H](CC(C)C)N(C)C(=O)C[C@@H](C(=O)N2CCCCC2)N(C)C(=O)[C@H](C2CCCCC2)N(C)C(=O)C2(CCCC2)NC(=O)[C@@H]2CSCN2C(=O)[C@H](CCc2ccc(C(F)(F)F)c(Cl)c2)NC(=O)CN(C)C(=O)[C@H](CC2CCCCC2)N(C)C(=O)CN(C)C(=O)CN(C)C1=O [Compound 1093] ([NMeL]I[Sar][Sar][NMeCha][Sar][hPhe(3-Cl-4-CF3)][Thz][Ac5c][NMeChg][NMeD]-Piperidide; lactam N-11),20 to 50
7,CC[C@H](C)[C@@H]1NC(=O)[C@H](CC(C)C)N(C)C(=O)C[C@@H](C(=O)N2CCOCC2)N(C)C(=O)[C@H](C2CCCC2)N(C)C(=O)C2(CCCC2)NC(=O)[C@@H]2CCCN2C(=O)[C@H](CCc2ccc(C(F)(F)F)c(Cl)c2)NC(=O)CN(C)C(=O)[C@H](CC2CCCCC2)N(C)C(=O)[C@@H]2CCN2C(=O)[C@H](C)NC1=O [Compound 1137] ([NMeL]IA[Aze][NMeCha][Sar][hPhe(3-Cl-4-CF3)]P[Ac5c][NMeGly(cPent)][NMeD]-Morpholide; lactam N-11),20 to 50
8,CC[C@H](C)[C@@H]1NC(=O)[C@H](CC(C)C)N(CC)C(=O)C[C@@H](C(=O)N2CCOCC2)N(C)C(=O)[C@H](C2CCCC2)N(C)C(=O)C2(CCCC2)NC(=O)[C@@H]2CCCN2C(=O)[C@H](CCc2ccc(C(F)(F)F)c(Cl)c2)NC(=O)CN(C)C(=O)[C@H](C2CCCC2)N(C)C(=O)[C@@H]2CCN2C(=O)[C@H](C)NC1=O [Compound 1140] ([NEtLeu]IA[Aze][NMeGly(cPent)][Sar][hPhe(3-Cl-4-CF3)]P[Ac5c][NMeGly(cPent)][NMeD]-Morpholide; lactam N-11),100 to 500
9,CC[C@H](C)[C@@H]1NC(=O)[C@H](CC(C)C)N(C)C(=O)C[C@@H](C(=O)N2CCOCC2)N(C)C(=O)[C@H](C2CCCC2)N(C)C(=O)C2(CCCC2)NC(=O)[C@@H]2CCCN2C(=O)[C@H](CCc2ccc(C(F)(F)F)c(Cl)c2)NC(=O)CN(CC)C(=O)[C@H](C2CCCC2)N(C)C(=O)[C@@H]2CCN2C(=O)[C@H](C)N(C)C1=O [Compound 1142] ([NMeL]I[NMeA][Aze][NMeGly(cPent)][NEtG][hPhe(3-Cl-4-CF3)]P[Ac5c][NMeGly(cPent)][NMeD]-Morpholide; lactam N-11),20 to 50
